In patent US20160297761A1, “NOVEL INHIBITORS OF GLUTAMINASE” (RHIZEN PHARMACEUTICALS SA, priority 2014, published 2016):
Where two headings read alike, the source gives them in different places.

Legend:
[1] = molecular target: T1, L-glutaminase present in mice brain homogenate (Glutaminase(Brain)) (Mus musculus, UniProt D3Z7P3); assay: Glutaminase enzyme activity using glutaminase enzyme from mice brain/kidney homogenate (Nessler's reagent, ammonia); format: biochemical; details: for inhibition at 0.1 µM: read-out: Glutaminase(Brain) activity % inhibition 0.1 μM; for inhibition at 1 µM: read-out: Glutaminase(Brain) activity % inhibition @1 μM
T1 sequence (D3Z7P3 55-674): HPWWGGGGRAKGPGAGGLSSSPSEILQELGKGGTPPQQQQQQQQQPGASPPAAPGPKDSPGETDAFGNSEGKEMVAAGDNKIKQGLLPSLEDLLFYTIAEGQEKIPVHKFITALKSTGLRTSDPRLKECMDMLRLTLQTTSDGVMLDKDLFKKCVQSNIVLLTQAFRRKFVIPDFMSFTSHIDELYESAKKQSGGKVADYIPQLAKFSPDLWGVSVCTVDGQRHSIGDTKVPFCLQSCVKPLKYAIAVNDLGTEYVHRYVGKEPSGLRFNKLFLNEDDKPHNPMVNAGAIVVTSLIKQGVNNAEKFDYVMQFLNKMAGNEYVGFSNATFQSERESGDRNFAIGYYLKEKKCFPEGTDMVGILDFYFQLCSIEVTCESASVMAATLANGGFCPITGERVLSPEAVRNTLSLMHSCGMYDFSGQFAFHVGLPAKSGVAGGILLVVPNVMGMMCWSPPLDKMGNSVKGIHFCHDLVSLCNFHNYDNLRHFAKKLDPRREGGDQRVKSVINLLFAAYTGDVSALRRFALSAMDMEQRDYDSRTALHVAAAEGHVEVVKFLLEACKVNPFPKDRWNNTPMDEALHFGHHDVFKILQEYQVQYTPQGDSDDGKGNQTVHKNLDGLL
Experimental: Assay 3: Determination of Glutaminase Enzyme Activity Using Glutaminase
Enzyme from Mice Brain/Kidney
Step 1: Preparation of Tissue Homogenates: Male Balb/c mice were administered 0.28 M ammonium chloride in drinking water for 7 days. The animals were sacrificed and brain/kidney organs collected on dry ice. […] The tissue was homogenized and supernatants were stored at −80° C. until the enzyme assay was performed.
Aim: Compounds were assessed for their ability to inhibit the enzymatic activity of L-glutaminase present in mice brain/kidney homogenate.
Protocol: The assay was performed using a colorimetric method using Nessler's Reagent by quantifying the amount of ammonia formed as a by product during the enzymatic conversion of L-glutamine to glutamate. In the routine assay, 16 μl of tissue homogenate is added to 33 μl of Tris-Hcl phosphate buffer (pH 8) along with 1 μl of DMSO/test compound containing the desired final concentration and vortexed briefly. 50 μl of 20 mM L-glutamine Tris buffer is added to start the reaction and incubated for 15 minutes at 37° C. The ammonia formed is detected by adding 20 μl of reaction mixture to cold water in a 96 well plate followed by 20 μl of Nessler's reagent. The colour developed is measured at 450 nm. Data Analysis: Activity of the test compound is reported as % inhibition and the data is analyzed using Graphpad Prism (Graphpad software; San Diego Calif.) for IC50 determination.

cancer cell lines = assay: In vitro cell proliferation assay in cancer cell lines (MTT dye reduction, 72 h); format: cell-based; details: cancer cell line not named, 10% FBS media
Experimental: Assay 4: In Vitro Cell Proliferation Assay in Cancer Cell Lines
Growth inhibition assays were carried out using 10% FBS supplemented media. Cells were seeded at a concentration of 5000-20,000 cells/well in a 96-well plate. Test compounds at a concentration range from 0.01 to 10000 nM were added after 24 hours. Growth was assessed using the 3-[4,5-dimethylthiazol-2-yl]-2,5-diphenyltetrazolium bromide (MIT) dye reduction test at 0 h (prior to the addition of the test compound) and 72 hours after the addition of test compound. Absorbance was read on a Fluostar Optima (BMG Labtech, Germany) at a wave length of 450 nm. Data were analysed using GraphPad Prism and percent inhibition due to the test compound compared to the control was calculated accordingly.

Compound	inhibition at 0.1 µM [1]	inhibition at 1 µM [1]	GI50 (cancer cell lines)	melting point	inhibition at 0.1 µM ([1]; 0.1 μM, mice brain homogenate)	inhibition at 1 µM ([1]; 1 μM, mice brain homogenate)
O=C(Cc1cccc(OC(F)(F)F)c1)Nc1ccc(CCCCc2nnc(NC(=O)Cc3ccccn3)s2)cn1 [Example 3, 2-(Pyridin-2-yl)-N-(5-(4-(6-(2-(3-(trifluoromethoxy)phenyl)acetamido)pyridin-3-yl)butyl)-1,3,4-thiadiazol-2-yl)acetamide]	50 to 75%	75 to 100%	400 to 1000 nM			
Cc1nc(NC(=O)Cc2cccc(OC(F)(F)F)c2)ccc1CCCCc1nnc(NC(=O)Cc2ccccn2)s1 [Example-9, N-(6-Methyl-5-(4-(5-(2-(pyridin-2-yl)acetamido)-1,3,4-thiadiazol-2-yl)butyl)pyridin-2-yl)-2-(3-(trifluoromethoxy)phenyl)acetamide]				96 to 101 °C	< 25%	< 25%
O=C(Cc1cccnc1)Nc1ccc(CCCCc2nnc(NC(=O)Cc3cccc(OC(F)(F)F)c3)s2)cn1 [Example-11, 2-(Pyridin-3-yl)-N-(5-(4-(5-(2-(3-(trifluoromethoxy)phenyl)acetamido)-1,3,4-thiadiazol-2-yl)butyl)pyridin-2-yl)acetamide]			< 100 nM		75 to 100%	75 to 100%
O=C(Cc1cccc(OC(F)(F)F)c1)Nc1ccc(CCCCc2nnc(NC(=O)Cc3cccc(OC(F)(F)F)c3)s2)cn1 [Example-16, 2-(3-(Trifluoromethoxy)phenyl)-N-(5-(4-(5-(2-(3-(trifluoromethoxy)phenyl)acetamido)-1,3,4-thiadiazol-2-yl)butyl)pyridin-2-yl)acetamide]			< 100 nM		25 to 50%	50 to 75%
N#Cc1cccc(CC(=O)Nc2nnc(CCCCc3ccc(NC(=O)Cc4cccc(OC(F)(F)F)c4)nc3)s2)c1 [Example-17, 2-(3-Cyanophenyl)-N-(5-(4-(6-(2-(3-(trifluoromethoxy)phenyl)acetamido)pyridin-3-yl)butyl)-1,3,4-thiadiazol-2-yl)acetamide]			100 to 400 nM		25 to 50%	75 to 100%
O=C(Cc1cccnc1)Nc1ccc(CCCCc2nnc(NC(=O)Cc3cccc(Cl)c3)s2)cn1 [Example-18, 2-(3-Chlorophenyl)-N-(5-(4-(6-(2-(pyridin-3-yl)acetamido)pyridin-3-yl)butyl)-1,3,4-thiadiazol-2-yl)acetamide]			100 to 400 nM		50 to 75%	75 to 100%
O=C(Cc1cccnc1)Nc1ccc(CCCCc2nnc(NC(=O)Cc3cccc(F)c3)s2)cn1 [Example-20, 2-(3-Fluorophenyl)-N-(5-(4-(6-(2-(pyridin-3-yl)acetamido)pyridin-3-yl)butyl)-1,3,4-thiadiazol-2-yl)acetamide]			400 to 1000 nM		75 to 100%	75 to 100%
O=C(Cc1cccc(OC(F)(F)F)c1)Nc1ccc(CCCCc2nnc(NC(=O)Cc3cccnc3)s2)c(F)n1 [Example-21, N-(6-Fluoro-5-(4-(5-(2-(pyridin-3-yl)acetamido)-1,3,4-thiadiazol-2-yl)butyl)pyridin-2-yl)-2-(3-(trifluoromethoxy)phenyl)acetamide]			< 100 nM		50 to 75%	75 to 100%
CCC(Cl)C(=O)Nc1nnc(CCCCc2ccc(NC(=O)Cc3cccc(OC(F)(F)F)c3)nc2)s1 (stereo not shown) [Example-24, 2-Chloro-N-(5-(4-(6-(2-(3-(trifluoromethoxy)phenyl)acetamido)pyridin-3-yl)butyl)-1,3,4-thiadiazol-2-yl)butanamide]			400 to 1000 nM		< 25%	< 25%
O=C(Cc1cccc(OC(F)(F)F)c1)Nc1ccc(CCCCc2nnc(NC(=O)Cc3cnccn3)s2)cn1 [Example-28, 2-(Pyrazin-2-yl)-N-(5-(4-(6-(2-(3-(trifluoromethoxy)phenyl)acetamido)pyridin-3-yl)butyl)-1,3,4-thiadiazol-2-yl)acetamide]			1000 to 5000 nM		75 to 100%	50 to 75%
O=C(Cc1cccc(OC(F)(F)F)c1)Nc1ccc(CCCCc2nnc(NC(=O)Cc3ccccn3)s2)c(F)n1 [Example-29, N-(6-fluoro-5-(4-(5-(2-(pyridin-2-yl)acetamido)-1,3,4-thiadiazol-2-yl)butyl)pyridin-2-yl)-2-(3-(trifluoromethoxy)phenyl)acetamide]			1000 to 5000 nM		50 to 75%	75 to 100%
CS(=O)(=O)Nc1cccc(CC(=O)Nc2nnc(CCCCc3ccc(NC(=O)Cc4cccc(OC(F)(F)F)c4)nc3)s2)c1 [Example-30, 2-(3-(Methylsulfonamido)phenyl)-N-(5-(4-(6-(2-(3-(trifluoromethoxy)phenyl)acetamido)pyridin-3-yl)butyl)-1,3,4-thiadiazol-2-yl)acetamide]			1000 to 5000 nM		50 to 75%	75 to 100%
CS(=O)(=O)Nc1ccc(CC(=O)Nc2nnc(CCCCc3ccc(NC(=O)Cc4cccc(OC(F)(F)F)c4)nc3)s2)cc1 [Example-31, 2-(4-(Methylsulfonamido)phenyl)-N-(5-(4-(6-(2-(3-(trifluoromethoxy)phenyl)acetamido)pyridin-3-yl)butyl)-1,3,4-thiadiazol-2-yl)acetamide]			5000 to 10000 nM		50 to 75%	75 to 100%
O=C(Cc1ccccn1)Nc1ccc(CCCCc2nnc(NC(=O)Cc3cccc(OC(F)(F)F)c3)s2)c(F)n1 [Example-32, N-(6-fluoro-5-(4-(5-(2-(3-(trifluoromethoxy)phenyl)acetamido)-1,3,4-thiadiazol-2-yl)butyl)pyridin-2-yl)-2-(pyridin-2-yl)acetamide]			400 to 1000 nM		< 25%	75 to 100%
O=C(Cc1ccccn1)Nc1ccc(CCCCc2nnc(NC(=O)Cc3cccnc3)s2)c(F)n1 [Example-38, N-(6-fluoro-5-(4-(5-(2-(pyridin-3-yl)acetamido)-1,3,4-thiadiazol-2-yl)butyl)pyridin-2-yl)-2-(pyridin-2-yl)acetamide]			< 100 nM		25 to 50%	75 to 100%
O=C(Cc1ccccc1)Nc1nnc(C2CCC(c3nnc(NC(=O)Cc4ccccc4)s3)CC2)s1 (stereo not shown) [Example-101, N,N′-(5, 5′-(cyclohexane-1,4-diyl)bis(1,3,4-thiadiazole-5,2-diyl))bis(2-phenylacetamide)]				281 to 283 °C		
O=C(Cc1cccc(OC(F)(F)F)c1)Nc1ccc(CC2CC(c3nnc(NC(=O)Cc4ccccn4)s3)C2)cn1 (stereo not shown) [Example-107, 2-(Pyridin-2-yl)-N-(5-(3-((6-(2-(3-(trifluoromethoxy)phenyl)acetamido)pyridin-3-yl)methyl)cyclobutyl)-1,3,4-thiadiazol-2-yl)acetamide]			400 to 1000 nM		25 to 50%	50 to 75%
O=C(Cc1cccc(OC(F)(F)F)c1)Nc1ccc(CC2CC(c3nnc(NC(=O)Cc4cccnc4)s3)C2)cn1 (stereo not shown) [Example-108, 2-(Pyridin-3-yl)-N-(5-(3-((6-(2-(3-(trifluoromethoxy)phenyl)acetamido)pyridin-3-yl)methyl)cyclobutyl)-1,3,4-thiadiazol-2-yl)acetamide]			100 to 400 nM		75 to 100%	75 to 100%
O=C(Cc1cccnc1)Nc1ccc(CC2CC(c3nnc(NC(=O)Cc4cccc(OC(F)(F)F)c4)s3)C2)cn1 (stereo not shown) [Example-109, 2-(Pyridin-3-yl)-N-(5-((3-(5-(2-(3-(trifluoromethoxy)phenyl)acetamido)-1,3,4-thiadiazol-2-yl)cyclobutyl)methyl)pyridin-2-yl)acetamide]			< 100 nM		50 to 75%	75 to 100%
